Experimental data published in patent US9296758B2, “2-quinolinyl-acetic acid derivatives as HIV antiviral compounds” (GILEAD SCIENCES, INC., priority 2010, dated 2016).

System: HIV-IIIb
Test: Test A: Antiviral Assays in MT4 Cells
Format: cell-based
Settings: MT-4 cells infected with HIV-IIIb (0.004 m.o.i.), 5 days of incubation, CellTiter-Glo chemiluminescence readout
Procedure: Test A: Antiviral Assays in MT4 Cells For the antiviral assay utilizing MT-4 cells, 0.4 μL of 189X test concentration of 3-fold serially diluted compound in DMSO was added to 40 μL of cell growth medium (RPMI 1640, 10% FBS, 1% penicillin/Streptomycin, 1% L-Glutamine, 1% HEPES) in each well of 384-well assay plates (10 concentrations) in quadruplicate. 1 mL aliquots of 2×10e6 MT-4 cells are pre-infected for 1 and 3 hrs respectively, @ 37° C. with 25 μL (MT4) or of either cell growth medium (mock-infected) or a fresh 1:250 dilution of an HIV-IIIb concentrated ABI stock (0.004 m.o.i. for MT4 cells). Infected and uninfected cells are diluted in cell growth medium and 35 uL of 2000 (for MT4) cells is added to each well of the assay plates. Assay plates were then incubated in a 37° C. incubator. After 5 days of incubation, 25 μl of 2× concentrated CellTiter-Glo™ Reagent (catalog #G7573, Promega Biosciences, Inc., Madison, Wis.) was added to each well of the assay plate. Cell lysis was carried out by incubating at room temperature for 2-3 min and then chemiluminescence was read using the Envision reader (PerkinElmer).

[1] = Human immunodeficiency virus 1, IIIB, MT4, 120 h

SMILES	EC50 [1] [nM]	EC50 [nM]
Cc1cc2nc(-c3cccnc3)ccc2c(-c2ccc3c4c(ccnc24)CCO3)c1[C@H](OC(C)(C)C)C(=O)O (atropisomer, axis not shown) [Compound 81, (S)-2-tert-butoxy-2-((R)-5-(2,3-dihydropyrano[4,3,2-de]quinolin-7-yl)-7-methyl-2-(pyridin-3-yl)quinolin-6-yl)acetic acid]	69	
Cc1cc2c(ccc(=O)n2-c2ccc(Cl)cc2)c(-c2ccc(Cl)cc2)c1[C@H](OC(C)(C)C)C(=O)O [Compound 59, (S)-2-(1,5-Bis(4-chlorophenyl)-7-methyl-2-oxo-1,2-dihydroquinolin-6-yl)-2-tert-butoxyacetic acid]	321	
Cc1ccc2c(-c3ccc(Cl)cc3)c([C@H](OC(C)(C)C)C(=O)O)c(Cl)cc2n1 [Compound 1L, (S)-2-tert-butoxy-2-(7-chloro-5-(4-chlorophenyl)-2-methylquinolin-6-yl)acetic acid]	170	
Cc1cc2nc(C(F)(F)F)ccc2c(-c2ccc(Cl)cc2)c1[C@H](OC(C)(C)C)C(=O)O [Compound 7J, (S)-2-tert-butoxy-2-(5-(4-chlorophenyl)-7-methyl-2-(trifluoromethyl)quinolin-6-yl)acetic acid]	160	
Cc1cc2nc(-c3cncnc3)ccc2c(-c2ccc3c4c(ccnc24)CCO3)c1[C@H](OC(C)(C)C)C(=O)O (atropisomer, axis not shown) [Compound 72, (S)-2-tert-Butoxy-2-((R)-5-(2,3-dihydropyrano[4,3,2-de]quinolin-7-yl)-7-methyl-2-(pyrimidin-5-yl)quinolin-6-yl)acetic acid]	194	
Cc1ccc2c(-c3ccc4c5c(cccc35)CCO4)c([C@H](OC(C)(C)C)C(=O)O)c(C)cc2n1 (single isomer, unassigned) [Compound 102A]		13
Cc1cc2nc(-c3ccn[nH]3)ccc2c(-c2ccc(Cl)cc2)c1[C@H](OC(C)(C)C)C(=O)O [Compound 70, (S)-2-tert-Butoxy-2-(5-(4-chlorophenyl)-7-methyl-2-(1H-pyrazol-5-yl)quinolin-6-yl)acetic acid]	206	
Cc1cc2nc(C(C)C)ccc2c(-c2ccc3c4c(ccnc24)CCO3)c1[C@H](OC(C)(C)C)C(=O)O [Compound 46, (S)-2-tert-Butoxy-2-((R)-5-(2,3-dihydropyrano[4,3,2-de]quinolin-7-yl)-2-isopropyl-7-methylquinolin-6-yl)acetic acid]	20	
Cc1cc2c(ccc3nncn32)c(-c2ccc(Cl)cc2)c1[C@H](OC(C)(C)C)C(=O)O [Compound 63, (S)-2-tert-butoxy-2-(6-(4-chlorophenyl)-8-methyl-[1,2,4]triazolo[4,3-a]quinolin-7-yl)acetic acid]	183	
C#Cc1ccc2c(-c3ccc4c5c(ccnc35)CCO4)c([C@H](OC(C)(C)C)C(=O)O)c(C)cc2n1 (atropisomer, axis not shown) [Compound 45, (S)-2-tert-butoxy-2-((R)-5-(2,3-dihydropyrano[4,3,2-de]quinolin-7-yl)-2-ethynyl-7-methylquinolin-6-yl)acetic acid]	29200	
Cc1cc2nc(N3CCOCC3)ccc2c(-c2ccc(Cl)cc2)c1[C@H](OC(C)(C)C)C(=O)O [Compound 29, (S)-2-tert-Butoxy-2-(5-(4-chlorophenyl)-7-methyl-2-morpholinoquinolin-6-yl)acetic acid]	939	
CNc1ccc2c(-c3ccc(Cl)cc3)c([C@H](OC(C)(C)C)C(=O)O)c(C)cc2n1 [Compound 31, (S)-2-tert-butoxy-2-(5-(4-chlorophenyl)-7-methyl-2-(methylamino)quinolin-6-yl)acetic acid]	105	
Cc1cc2nc(CCC3CC3)ccc2c(-c2ccc3c4c(ccnc24)CCO3)c1[C@H](OC(C)(C)C)C(=O)O (atropisomer, axis not shown) [Compound 43, (S)-2-tert-Butoxy-2-((R)-2-(2-cyclopropylethyl)-5-(2,3-dihydropyrano[4,3,2-de]quinolin-7-yl)-7-methylquinolin-6-yl)acetic acid]	27	
Cc1cc2nc(CN3CCCCC3)ccc2c(-c2ccc(Cl)cc2)c1[C@H](OC(C)(C)C)C(=O)O [Compound 11, (S)-2-tert-Butoxy-2-(5-(4-chlorophenyl)-7-methyl-2-(piperidin-1-ylmethyl)quinolin-6-yl)acetic acid]	479	
Cc1cc2nc(N3CCCC3)ccc2c(-c2ccc3c4c(ccnc24)CCO3)c1[C@H](OC(C)(C)C)C(=O)O [Compound 94, (S)-2-tert-butoxy-2-((R)-5-(2,3-dihydropyrano[4,3,2-de]quinolin-7-yl)-7-methyl-2-(pyrrolidin-1-yl)quinolin-6-yl)acetic acid]	149	
Cc1cc2nc(C3CCCCC3)ccc2c(-c2ccc3c4c(ccnc24)CCO3)c1[C@H](OC(C)(C)C)C(=O)O (atropisomer, axis not shown) [Compound 52, (S)-2-tert-Butoxy-2-((R)-2-cyclohexyl-5-(2,3-dihydropyrano[4,3,2-de]quinolin-7-yl)-7-methylquinolin-6-yl)acetic acid]	25	
CC(=O)c1ccc2c(-c3ccc4c5c(ccnc35)CCO4)c([C@H](OC(C)(C)C)C(=O)O)c(C)cc2n1 [Compound 111, (S)-2-((R)-2-Acetyl-5-(2,3-dihydropyrano[4,3,2-de]quinolin-7-yl)-7-methylquinolin-6-yl)-2-tert-butoxyacetic acid]	352	
Cc1cc2nc(C(F)F)ccc2c(-c2ccc3c4c(ccnc24)CCO3)c1[C@H](OC(C)(C)C)C(=O)O [Compound 99, (S)-2-tert-butoxy-2-((R)-2-(difluoromethyl)-5-(2,3-dihydropyrano[4,3,2-de]quinolin-7-yl)-7-methylquinolin-6-yl)acetic acid]		12
Cc1cc2nc(C#Cc3ccccc3)ccc2c(-c2ccc(Cl)cc2)c1[C@H](OC(C)(C)C)C(=O)O [Compound 37A, (S)-2-tert-butoxy-2-(5-(4-chlorophenyl)-7-methyl-2-(phenylethynyl)quinolin-6-yl)acetic acid]	36	
Cc1cc2nc(CC(C)C)ccc2c(-c2ccc3c4c(ccnc24)CCO3)c1[C@H](OC(C)(C)C)C(=O)O (atropisomer, axis not shown) [Compound 50, (S)-2-tert-butoxy-2-((R)-5-(2,3-dihydropyrano[4,3,2-de]quinolin-7-yl)-2-isobutyl-7-methylquinolin-6-yl)acetic acid]	24	
CCOC(=O)c1ccc2c(-c3ccc(Cl)cc3)c([C@H](OC(C)(C)C)C(=O)O)c(C)cc2n1 [Compound 13, (S)-2-tert-Butoxy-2-(5-(4-chlorophenyl)-2-(ethoxycarbonyl)-7-methylquinolin-6-yl)acetic acid]	150	
Cc1cc2nc(-c3ccccc3)ccc2c(-c2ccc3c4c(ccnc24)CCO3)c1[C@H](OC(C)(C)C)C(=O)O (atropisomer, axis not shown) [Compound 57, (S)-2-tert-Butoxy-2-((R)-5-(2,3-dihydropyrano[4,3,2-de]quinolin-7-yl)-7-methyl-2-phenylquinolin-6-yl)acetic acid]	20	
Cc1cc2nc(-c3ccccn3)ccc2c(-c2ccc3c4c(ccnc24)CCO3)c1[C@H](OC(C)(C)C)C(=O)O (atropisomer, axis not shown) [Compound 80, (S)-2-tert-Butoxy-2-((R)-5-(2,3-dihydropyrano[4,3,2-de]quinolin-7-yl)-7-methyl-2-(pyridin-2-yl)quinolin-6-yl)acetic acid]	52	
